Reference: patent US10494363B2, “Non-steroidal glucocorticoid receptor modulators for local drug delivery” (LEO PHARMA A/S, priority 2015, dated 2019)

Experiments:
[1] = target: T1, glucocorticoid receptor (GR), recombinant full-length receptor protein (Homo sapiens, UniProt P04150); assay: Glucocorticoid receptor binding assay (fluorescence polarization kit); settings: 4 nM receptor, 2.5 nM Fluormone GS1 tracer, 2h room temperature, read-out: GR binding ABS IC50
T1 construct: 4 nM recombinant, full-length receptor protein was incubated with increasing concentrations of GR ligand; purchased Life Technologies A-15897
T1 sequence (P04150 1-777): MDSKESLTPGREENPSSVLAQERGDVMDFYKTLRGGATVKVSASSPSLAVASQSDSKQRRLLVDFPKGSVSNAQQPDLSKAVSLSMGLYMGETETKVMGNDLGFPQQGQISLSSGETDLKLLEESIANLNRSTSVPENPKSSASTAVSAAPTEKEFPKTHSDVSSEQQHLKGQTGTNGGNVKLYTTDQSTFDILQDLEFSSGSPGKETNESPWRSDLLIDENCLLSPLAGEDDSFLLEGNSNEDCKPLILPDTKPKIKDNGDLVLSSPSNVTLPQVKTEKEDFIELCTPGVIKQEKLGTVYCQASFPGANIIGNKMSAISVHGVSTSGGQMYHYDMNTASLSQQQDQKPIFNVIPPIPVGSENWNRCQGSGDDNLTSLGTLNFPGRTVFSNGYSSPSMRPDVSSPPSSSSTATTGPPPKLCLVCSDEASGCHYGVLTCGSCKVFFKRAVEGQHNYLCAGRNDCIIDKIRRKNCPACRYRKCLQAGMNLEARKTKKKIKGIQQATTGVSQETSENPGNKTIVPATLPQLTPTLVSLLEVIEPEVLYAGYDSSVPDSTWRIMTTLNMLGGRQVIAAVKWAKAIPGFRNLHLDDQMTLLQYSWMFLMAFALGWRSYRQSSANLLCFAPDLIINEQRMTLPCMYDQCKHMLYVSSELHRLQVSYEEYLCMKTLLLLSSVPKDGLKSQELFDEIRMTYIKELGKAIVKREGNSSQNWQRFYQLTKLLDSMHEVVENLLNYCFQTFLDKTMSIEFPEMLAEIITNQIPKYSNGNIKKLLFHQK
Method: Test compounds were diluted in DMSO over seven orders of magnitude, further diluted in assay buffer and distributed into 384-well plates. The sensitivity limit of this assay was 2-4 nM.
Data were processed by sigmoidal curve fitting.
Absolute (Abs) IC50 and Emax were determined from the curve fits.

[2] = tested on: TNF alpha release from human PBMCs; assay: Inhibition of TNF alpha release from human PBMCs; type: cell-based; settings: PBMC, LPS 1 μg/ml, 18 hours, AlphaLISA
Method: PBMC were isolated from fresh buffy coats by density centrifugation using lymphoprep (Medinor AB, cat no 1019818) tubes. Isolated PBMCs were washed in assay medium (RPMI1640 with 25 mM HEPES, 1% pen/strep, 200 mM L glutamine and 10% Foetal calf serum). Surplus PBMCs were frozen in medium containing extra 10% foetal calf serum and 5% DMSO. On the assay day, fresh cells or cryopreserved cells after thawing were washed in serum free medium (RPMI1640 with 25 mM HEPES, 1% pen/strep, 200 mM L glutamine and 0.5% human serum albumin) and counted, in order to determine the fraction of living cells (generally >95%).
Test compounds were diluted in DMSO over seven orders of magnitude, further diluted in serum-free medium and distributed into wells of 384 well tissue culture plates. LPS was added to a final concentration of 1 μg/ml to the cells. Immediately thereafter titrated test compounds were added and incubated for 18 hours at 37° C.
The level of TNF-a in the culture supernatant was quantitated by AlphaLISA (Perkin Elmer). 2-(3,5-dichloro-4-pyridinyl)-1-(7-methoxyspiro[1,3-benzodioxole-2,1′-cyclopentan]-4-yl)-ethanone (CAS 185406-34-2) at 100×IC50 was used to define the assay window.
Data were processed by sigmoidal curve fitting. EC50 and Emax were determined from the curve fits.

[3] = Human liver microsomes (HLM) assay; type: in vitro ADME; settings: hepatic extraction ratio; 0.5 μM compound, 0.5 mg/mL microsomes, NADPH, 37° C.
Method: Incubations of test compounds in DMSO, diluted with phosphate buffer, pH 7.4, at 0.5 μM were carried out with human liver microsomes (0.5 mg/mL). The percentage of organic solvent in the incubations was 1%. The human liver microsomal suspension in phosphate buffer was mixed with NADPH (1 mM) and preheated to 37° C. before test compound was added. Aliquots were taken at 0, 5, 10, 20 and 30 minutes, and reactions were terminated by addition of methanol containing analytical internal standard (IS).
The results were expressed as apparent clearance (Clapp) (mL/min/kg) and hepatic extraction ratio (Eh) (%) calculated from the rate constant (k) (min^−1) of test compound depletion.

Structure (SMILES)	IC50 [1] [nM]	HLM assay Eh (%) [3]	EC50 [2] [nM]
CC[C@H](O)C(=O)N[C@@H](C)[C@H](Oc1ccc(C(=O)N[C@H]2CCCN(C(=O)[C@H]3COC(=O)C3)C2)nc1)c1ccc(C2CC2)cc1 [Compound 10, 5-[(1R,2S)-1-(4-cyclopropylphenyl)-2-[[(2S)-2-hydroxybutanoyl]amino]propoxy]-N-[(3S)-1-[(3R)-5-oxotetrahydrofuran-3-carbonyl]-3-piperidyl]pyridine-2-carboxamide]	100 to 300	* (extraction ratio (Eh)>90%)	< 100
C[C@H](NC(=O)[C@@H](C)O)[C@H](Oc1ccc(C(=O)N[C@H]2CCCN(C(=O)[C@H]3COC(=O)C3)C2)nc1)c1ccc(C2CC2)cc1 [Compound 11, 5-[(1R,2S)-1-(4-cyclopropylphenyl)-2-[[(2R)-2-hydroxypropanoyl]amino]propoxy]-N-[(3S)-1-[(3R)-5-oxotetrahydrofuran-3-carbonyl]-3-piperidyl]pyridine-2-carboxamide]	> 300	* (extraction ratio (Eh)>90%)	< 100
CC[C@@H](O)C(=O)N[C@@H](C)[C@H](Oc1ccc(C(=O)N[C@H]2CCCN(C(=O)[C@H]3COC(=O)C3)C2)nc1)c1ccc(C2CC2)cc1 [Compound 13, 5-[(1R,2S)-1-(4-cyclopropylphenyl)-2-[[(2R)-2-hydroxybutanoyl]amino]propoxy]-N-[(3S)-1-[(3R)-5-oxotetrahydrofuran-3-carbonyl]-3-piperidyl]pyridine-2-carboxamide]	100 to 300	* (extraction ratio (Eh)>90%)	< 100
COCC(=O)N[C@@H](C)[C@H](Oc1ccc(C(=O)N[C@H]2CCCN(C(=O)[C@H]3COC(=O)C3)C2)nc1)c1ccc(C2CC2)cc1 [Compound 14, 5-[(1R,2S)-1-(4-cyclopropylphenyl)-2-[(2-methoxyacetyl)amino]propoxy]-N-[(3S)-1-[(3R)-5-oxotetrahydrofuran-3-carbonyl]-3-piperidyl]pyridine-2-carboxamide]	100 to 300	* (extraction ratio (Eh)>90%)	< 100
C[C@H](NC(=O)C(C)(C)O)[C@H](Oc1ccc(C(=O)N[C@H]2CCCN(C(=O)[C@H]3COC(=O)C3)C2)nc1)c1ccc(C2CC2)cc1 [Compound 15, 5-[(1R,2S)-1-(4-cyclopropylphenyl)-2-[(2-hydroxy-2-methyl-propanoyl)amino]propoxy]-N-[(3S)-1-[(3R)-5-oxotetrahydrofuran-3-carbonyl]-3-piperidyl]pyridine-2-carboxamide]	> 300	** (50%<extraction ratio (Eh)<90%)	< 100
C[C@H](NC(=O)CCO)[C@H](Oc1ccc(C(=O)N[C@H]2CCCN(C(=O)[C@H]3COC(=O)C3)C2)nc1)c1ccc(C2CC2)cc1 [Compound 16, 5-[(1R,2S)-1-(4-cyclopropylphenyl)-2-(3-hydroxypropanoylamino)propoxy]-N-[(3S)-1-[(3R)-5-oxotetrahydrofuran-3-carbonyl]-3-piperidyl]pyridine-2-carboxamide]	> 300	* (extraction ratio (Eh)>90%)	< 100

Now from value to compound, other results behind:

IC50 [1] [nM]	HLM assay Eh (%) [3]	Structure (SMILES)	EC50 [2] [nM]
< 100	* (extraction ratio (Eh)>90%)	C[C@H](NC(=O)C(C)(F)F)[C@H](Oc1ccc(C(=O)N[C@H]2CCCN(C(=O)[C@H]3COC(=O)C3)C2)nc1)c1ccc(C2CC2)cc1 [Compound 3, 5-[(1R,2S)-1-(4-cyclopropylphenyl)-2-(2,2-difluoropropanoylamino)propoxy]-N-[(3S)-1-[(3R)-5-oxotetrahydrofuran-3-carbonyl]-3-piperidyl]pyridine-2-carboxamide]	< 100
< 100	* (extraction ratio (Eh)>90%)	C[C@H](NC(=O)c1ccsn1)[C@H](Oc1ccc(C(=O)N[C@H]2CCCN(C(=O)[C@H]3COC(=O)C3)C2)nc1)c1ccc(C2CC2)cc1 [Compound 4, N-[(1S,2R)-2-(4-cyclopropylphenyl)-1-methyl-2-[[6-[[(3S)-1-[(3R)-5-oxotetrahydrofuran-3-carbonyl]-3-piperidyl]carbamoyl]-3-pyridyl]oxy]ethyl]isothiazole-3-carboxamide]	< 100
< 100	* (extraction ratio (Eh)>90%)	C[C@H](NC(=O)c1ccns1)[C@H](Oc1ccc(C(=O)N[C@H]2CCCN(C(=O)[C@H]3COC(=O)C3)C2)nc1)c1ccc(C2CC2)cc1 [Compound 5, N-[(1S,2R)-2-(4-cyclopropylphenyl)-1-methyl-2-[[6-[[(3S)-1-[(3R)-5-oxotetrahydrofuran-3-carbonyl]-3-piperidyl]carbamoyl]-3-pyridyl]oxy]ethyl]isothiazole-5-carboxamide]	< 100
< 100	* (extraction ratio (Eh)>90%)	C[C@H](NC(=O)c1ncco1)[C@H](Oc1ccc(C(=O)N[C@H]2CCCN(C(=O)[C@H]3COC(=O)C3)C2)nc1)c1ccc(C2CC2)cc1 [Compound 6, N-[(1S,2R)-2-(4-cyclopropylphenyl)-1-methyl-2-[[6-[[(3S)-1-[(3R)-5-oxotetrahydrofuran-3-carbonyl]-3-piperidyl]carbamoyl]-3-pyridyl]oxy]ethyl]oxazole-2-carboxamide]	< 100
< 100	* (extraction ratio (Eh)>90%)	C[C@H](NC(=O)c1cscn1)[C@H](Oc1ccc(C(=O)N[C@H]2CCCN(C(=O)[C@H]3COC(=O)C3)C2)nc1)c1ccc(C2CC2)cc1 [Compound 7, N-[(1S,2R)-2-(4-cyclopropylphenyl)-1-methyl-2-[[6-[[(3S)-1-[(3R)-5-oxotetrahydrofuran-3-carbonyl]-3-piperidyl]carbamoyl]-3-pyridyl]oxy]ethyl]thiazole-4-carboxamide]	< 100
< 100	* (extraction ratio (Eh)>90%)	Cc1cc(C(=O)N[C@@H](C)[C@H](Oc2ccc(C(=O)N[C@H]3CCCN(C(=O)[C@H]4COC(=O)C4)C3)nc2)c2ccc(C3CC3)cc2)on1 [Compound 8, N-[(1S,2R)-2-(4-cyclopropylphenyl)-1-methyl-2-[[6-[[(3S)-1-[(3R)-5-oxotetrahydrofuran-3-carbonyl]-3-piperidyl]carbamoyl]-3-pyridyl]oxy]ethyl]-3-methylisoxazole-5-carboxamide]	< 100
100 to 300	* (extraction ratio (Eh)>90%)	C[C@H](NC(=O)c1cnco1)[C@H](Oc1ccc(C(=O)N[C@H]2CCCN(C(=O)[C@H]3COC(=O)C3)C2)nc1)c1ccc(C2CC2)cc1 [Compound 9, N-[(1S,2R)-2-(4-cyclopropylphenyl)-1-methyl-2-[[6-[[(3S)-1-[(3R)-5-oxotetrahydrofuran-3-carbonyl]-3-piperidyl]carbamoyl]-3-pyridyl]oxy]ethyl]oxazole-5-carboxamide]	< 100
< 100	* (extraction ratio (Eh)>90%)	C[C@H](NC(=O)c1ccno1)[C@H](Oc1ccc(C(=O)N[C@H]2CCCN(C(=O)[C@H]3COC(=O)C3)C2)nc1)c1ccc(C2CC2)cc1 [Compound 12, N-[(1S,2R)-2-(4-cyclopropylphenyl)-1-methyl-2-[[6-[[(3S)-1-[(3R)-5-oxotetrahydrofuran-3-carbonyl]-3-piperidyl]carbamoyl]-3-pyridyl]oxy]ethyl]isoxazole-5-carboxamide]	< 100
